Reference: publication PMC10653547, “Synergistic effect of two antimicrobial peptides, BP203 and MAP-0403 J-2 with conventional antibiotics against colistin-resistant Escherichia coli and Klebsiella pneumoniae clinical isolates” (PLOS ONE, 2023)
Where two headings read alike, the source gives them in different places. No end group written: not given here.

Columns and labels:
[1] = system: K. pneumoniae ATCC BAA-1706 and colistin-resistant K. pneumoniae clinical isolates
Method: (§1) The MICs of BP203 and MAP-0403 J-2 against clinically colistin-resistant E. coli and K. pneumoniae isolates were determined using the broth microdilution method, according to CLSI recommendations. Briefly, the peptides were subjected to serial dilution in cation-adjusted Mueller-Hinton broth (CAMHB) and added to a 96-well microtiter plate (Wuxi NEST Biotechnology, Wuxi, China). Subsequently, bacterial suspensions from freshly mid-log phase cultures were diluted to 10^6 CFU/mL with CAMHB, and introduced to each well containing the peptides.

[2] = system: E. coli ATCC 25922 and colistin-resistant E. coli clinical isolates
Method: as §1

E. coli ATCC 25922 [3] = system: E. coli ATCC 25922
Method: as §1
(§2) The antibacterial activity of BP203 and MAP-0403 J-2 was evaluated concerning their response to temperature, pH, serum, and salt ions using the MIC assay, following the previously mentioned procedure. The MIC values of peptides were determined against E. coli ATCC29522 and K. pneumoniae ATCC BAA-1706. […] For the pH stability assay, both peptides were incubated in buffers with different pH values (100 mM buffers: glycine-HCl buffer (pH 2.0), sodium acetate buffer (pH 4.0), sodium phosphate buffer (pH 6.0), Tris-HCl buffer (pH 8.0), and glycine-NaOH buffer (pH 10.0)) for 1 h at 37°C. […] For serum stability assay, both peptides were exposed to 25% and 50% fetal bovine serum (FBS) for 1 h at 37°C, followed by a heat activation step for 30 min at 60°C. Afterward, the peptide solutions were serially diluted and MIC was subsequently determined. For the salt stability assay, each peptide was treated in MHB supplemented with different salts at their physiological concentrations; NaCl (100, 150, and 200 mM), MgCl2 (0.5, 1 and 2 mM), and FeCl3 (1, 4 and 8 mM). The serial dilutions of peptides were incubated with tested strains for MIC testing. The MICs were observed after 20–24 h of incubation at 37°C.

[4] = system: K. pneumoniae ATCC BAA-1706
Method: as §1, §2

E. coli ATCC 25922 [5] = system: E. coli ATCC 25922; remark: listed apart in the source
Method: as §1
as §2, with “For the salt stability assay, each peptide was treated in MHB supplemented with different salts at their physiological concentrations; NaCl (100, 150, and 200 mM), MgCl2 (0.5, 1 and 2 mM), and FeCl3 (1, 4 and 8 mM).” left out

[6] = system: K. pneumoniae ATCC BAA-1706; remark: listed apart in the source
Method: as §1
as §2, with “For the salt stability assay, each peptide was treated in MHB supplemented with different salts at their physiological concentrations; NaCl (100, 150, and 200 mM), MgCl2 (0.5, 1 and 2 mM), and FeCl3 (1, 4 and 8 mM).” left out

[7] = 25% fetal bovine serum, 1 h at 37 °C
[8] = 50% fetal bovine serum, 1 h at 37 °C
[9] = pH 2, 100 mM glycine-HCl buffer, 1 h at 37 °C, neutralized
[10] = pH 4, 100 mM sodium acetate buffer, 1 h at 37 °C, neutralized
[11] = pH 6, 100 mM sodium phosphate buffer, 1 h at 37 °C, neutralized
[12] = pH 8, 100 mM Tris-HCl buffer, 1 h at 37 °C, neutralized
[13] = pH 10, 100 mM glycine-NaOH buffer, 1 h at 37 °C, neutralized
[14] = peptide incubated 1 h at 25 °C (control)

KWLRRPWRRWR-NH2 [MAP-0403 J-2]
16 μg/mL: MIC after pH treatment (E. coli ATCC 25922 [3]; [9]) | MIC after pH treatment (E. coli ATCC 25922 [3]; [10]) | MIC after pH treatment (E. coli ATCC 25922 [3]; [11]) | MIC after pH treatment (E. coli ATCC 25922 [3]; pH 7 (control)) | MIC after pH treatment (E. coli ATCC 25922 [3]; [12]) | MIC after pH treatment (E. coli ATCC 25922 [3]; [13]) | MIC after pH treatment [4, 9] | MIC after pH treatment [4, 10] | MIC after pH treatment [4, 11] | MIC after pH treatment ([4]; pH 7 (control)) | MIC after pH treatment [4, 12] | MIC after pH treatment [4, 13] | MIC in the presence of physiological salts (E. coli ATCC 25922 [5]; Control, 0) | MIC in the presence of physiological salts (E. coli ATCC 25922 [5]; FeCl3 1 μM) | MIC in the presence of physiological salts (E. coli ATCC 25922 [5]; FeCl3 4 μM) | MIC in the presence of physiological salts (E. coli ATCC 25922 [5]; FeCl3 8 μM) | MIC in the presence of physiological salts (E. coli ATCC 25922 [5]; MgCl2 0.5 mM) | MIC in the presence of physiological salts (E. coli ATCC 25922 [5]; MgCl2 1 mM) | MIC in the presence of physiological salts (E. coli ATCC 25922 [5]; MgCl2 2 mM) | MIC in the presence of physiological salts ([6]; Control, 0) | MIC in the presence of physiological salts ([6]; FeCl3 1 μM) | MIC in the presence of physiological salts ([6]; FeCl3 4 μM) | MIC in the presence of physiological salts ([6]; MgCl2 0.5 mM) | MIC in the presence of physiological salts ([6]; MgCl2 1 mM) | MIC in the presence of physiological salts ([6]; MgCl2 2 mM)
8 to 32 µg/mL: MICs against colistin-resistant E. coli clinical isolates ([2]; range over ten isolates)
512 µg/mL: MBC ([1]; KP-05)
256 µg/mL: MBC ([1]; KP-02) | MIC ([1]; KP-05)
128 µg/mL: MIC ([1]; KP-02)
32 μg/mL: MIC in the presence of physiological salts (E. coli ATCC 25922 [5]; NaCl 100 mM) | MIC in the presence of physiological salts ([6]; FeCl3 8 μM) | MIC in the presence of physiological salts ([6]; NaCl 100 mM)
>512 µg/mL: MBC ([1]; KP-01) | MIC ([1]; KP-01) | MBC ([1]; KP-03) | MIC ([1]; KP-03) | MBC ([1]; KP-04) | MIC ([1]; KP-04) | MBC ([1]; KP-06) | MIC ([1]; KP-06) | MBC ([1]; KP-07) | MIC ([1]; KP-07) | MBC ([1]; KP-08) | MIC ([1]; KP-08) | MBC ([1]; KP-09) | MIC ([1]; KP-09) | MBC ([1]; KP-10) | MIC ([1]; KP-10)
16 µg/mL: MBC ([1]; K. pneumoniae ATCC BAA-1706) | MIC ([1]; K. pneumoniae ATCC BAA-1706) | MBC ([2]; E. coli ATCC 25922) | MIC ([2]; E. coli ATCC 25922) | MIC ([2]; EC-01) | MBC ([2]; EC-03) | MIC after FBS treatment (E. coli ATCC 25922 [3]; 0% FBS (control)) | MIC after FBS treatment (E. coli ATCC 25922 [3]; [7]) | MIC after temperature treatment (E. coli ATCC 25922 [3]; [14]) | MIC after temperature treatment (E. coli ATCC 25922 [3]; peptide incubated 1 h at 37 °C) | MIC after temperature treatment (E. coli ATCC 25922 [3]; peptide incubated 1 h at 50 °C) | MIC after temperature treatment (E. coli ATCC 25922 [3]; peptide incubated 1 h at 70 °C) | MIC after temperature treatment (E. coli ATCC 25922 [3]; peptide incubated 1 h at 90 °C) | MIC after FBS treatment ([4]; 0% FBS (control)) | MIC after FBS treatment [4, 7] | MIC after FBS treatment [4, 8] | MIC after temperature treatment [4, 14] | MIC after temperature treatment ([4]; peptide incubated 1 h at 37 °C) | MIC after temperature treatment ([4]; peptide incubated 1 h at 50 °C) | MIC after temperature treatment ([4]; peptide incubated 1 h at 70 °C) | MIC after temperature treatment ([4]; peptide incubated 1 h at 90 °C)
32 µg/mL: MBC ([2]; EC-01) | MBC ([2]; EC-02) | MIC ([2]; EC-02) | MIC ([2]; EC-05) | MBC ([2]; EC-06) | MIC ([2]; EC-06) | MBC ([2]; EC-07) | MIC ([2]; EC-07) | MIC ([2]; EC-08) | MBC ([2]; EC-09) | MIC ([2]; EC-10) | MIC after FBS treatment (E. coli ATCC 25922 [3]; [8])
≥ 512 µg/mL: MIC against colistin-resistant K. pneumoniae clinical isolates ([1]; range over ten isolates)
64 μg/mL: MIC in the presence of physiological salts (E. coli ATCC 25922 [5]; NaCl 150 mM) | MIC in the presence of physiological salts (E. coli ATCC 25922 [5]; NaCl 200 mM) | MIC in the presence of physiological salts ([6]; NaCl 150 mM) | MIC in the presence of physiological salts ([6]; NaCl 200 mM)
8 µg/mL: MIC ([2]; EC-03) | MBC ([2]; EC-04) | MIC ([2]; EC-04) | MIC ([2]; EC-09)
64 µg/mL: MBC ([2]; EC-05) | MBC ([2]; EC-08) | MBC ([2]; EC-10)
